Experiment [1] concerns the target T1, HiBit-BRG1 fusion protein (Homo sapiens, UniProt P51532).
T1 construct: expressed in transfected cells
The experiment is described as follows: HiBiT-BRG1 cell-based degradation assay (Nano-Glo HiBiT Lytic Detection, 24 h). The following applies: HeLa cell line expressing HiBit-BRG1 and LgBit; for Dmax: read-out: BRG1 HiBit Degradation Maximum (%). Summed up:
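Percent degradation derived from lytic HiBiT signal, normalized to DMSO-treated cells and to cells given 2 μM of a known BRM/BRG1 degrader. The HeLa line stably expressed HiBit-BRG1 and LgBit; treatment lasted 24 h at 5000 cells per well.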
(In general: The HiBiT peptide binds its large partner to form an active luciferase.)

The next experiment concerns the target T2, HiBit-BRM fusion protein (Homo sapiens, UniProt P51531).
T2 construct: expressed in transfected cells
The experiment is described as follows: HiBiT-BRM cell-based degradation assay (Nano-Glo HiBiT Lytic Detection, 24 h). Conditions: HeLa cell line expressing HiBiT-BRM; for DC50: read-out: BRM HiBit Degradation IC50. In a few lines:
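Percent BRM loss was derived from HiBiT luminescence relative to DMSO-treated cells and cells given 2 μM of a known BRM/BRG1 degrader. Treatment lasted 24 h in HiBiT-BRM HeLa cells, with a top final concentration of 30 μM.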

Setting [2] is: read-out: BRMG1 HiBit Degradation IC50.

For orientation: IC50 means the concentration needed to halve the response being measured.

Structures are written as SMILES.

T1 sequence (P51532 whole entry, the tested form may be a part): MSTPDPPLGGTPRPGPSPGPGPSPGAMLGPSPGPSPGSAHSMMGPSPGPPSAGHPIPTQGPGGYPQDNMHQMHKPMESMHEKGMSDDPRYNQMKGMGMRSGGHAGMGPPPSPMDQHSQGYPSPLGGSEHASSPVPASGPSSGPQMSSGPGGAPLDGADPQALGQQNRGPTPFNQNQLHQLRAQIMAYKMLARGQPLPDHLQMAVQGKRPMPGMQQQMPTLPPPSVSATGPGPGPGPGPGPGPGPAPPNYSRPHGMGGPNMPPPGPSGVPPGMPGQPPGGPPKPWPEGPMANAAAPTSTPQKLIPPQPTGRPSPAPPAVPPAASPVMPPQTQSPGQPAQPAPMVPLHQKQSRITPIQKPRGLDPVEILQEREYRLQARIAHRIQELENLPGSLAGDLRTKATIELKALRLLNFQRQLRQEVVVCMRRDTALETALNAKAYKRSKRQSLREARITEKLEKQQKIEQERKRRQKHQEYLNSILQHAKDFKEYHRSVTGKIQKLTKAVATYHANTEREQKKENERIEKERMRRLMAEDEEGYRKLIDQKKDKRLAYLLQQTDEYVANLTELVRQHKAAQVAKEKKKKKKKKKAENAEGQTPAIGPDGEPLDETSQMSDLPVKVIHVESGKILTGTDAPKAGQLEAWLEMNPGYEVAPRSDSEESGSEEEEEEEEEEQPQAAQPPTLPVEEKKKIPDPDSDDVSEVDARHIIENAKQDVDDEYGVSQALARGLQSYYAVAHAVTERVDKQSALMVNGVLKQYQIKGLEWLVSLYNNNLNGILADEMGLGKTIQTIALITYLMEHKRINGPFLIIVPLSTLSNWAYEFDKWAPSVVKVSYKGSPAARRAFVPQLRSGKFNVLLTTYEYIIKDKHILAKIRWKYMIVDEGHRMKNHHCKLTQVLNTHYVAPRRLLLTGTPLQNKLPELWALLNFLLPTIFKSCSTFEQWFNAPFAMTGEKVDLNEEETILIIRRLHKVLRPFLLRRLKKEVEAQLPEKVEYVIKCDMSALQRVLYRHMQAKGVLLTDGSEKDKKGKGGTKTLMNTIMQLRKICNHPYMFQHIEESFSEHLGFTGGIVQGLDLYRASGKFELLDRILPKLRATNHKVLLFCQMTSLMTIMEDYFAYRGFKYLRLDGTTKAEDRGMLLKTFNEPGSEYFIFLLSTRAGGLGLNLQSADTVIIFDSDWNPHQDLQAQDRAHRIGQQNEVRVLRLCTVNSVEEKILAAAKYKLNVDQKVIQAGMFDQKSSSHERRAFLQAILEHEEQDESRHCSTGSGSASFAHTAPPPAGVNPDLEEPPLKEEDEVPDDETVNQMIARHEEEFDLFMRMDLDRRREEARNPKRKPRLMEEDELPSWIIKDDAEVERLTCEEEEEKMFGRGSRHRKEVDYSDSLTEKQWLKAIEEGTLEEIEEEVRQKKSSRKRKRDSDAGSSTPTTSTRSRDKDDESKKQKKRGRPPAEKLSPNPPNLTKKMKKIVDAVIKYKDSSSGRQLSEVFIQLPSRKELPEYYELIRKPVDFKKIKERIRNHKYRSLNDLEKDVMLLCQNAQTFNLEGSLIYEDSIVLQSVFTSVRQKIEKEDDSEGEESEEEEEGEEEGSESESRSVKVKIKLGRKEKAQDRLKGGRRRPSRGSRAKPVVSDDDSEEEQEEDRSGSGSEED
T2 sequence (P51531 whole entry, the tested form may be a part): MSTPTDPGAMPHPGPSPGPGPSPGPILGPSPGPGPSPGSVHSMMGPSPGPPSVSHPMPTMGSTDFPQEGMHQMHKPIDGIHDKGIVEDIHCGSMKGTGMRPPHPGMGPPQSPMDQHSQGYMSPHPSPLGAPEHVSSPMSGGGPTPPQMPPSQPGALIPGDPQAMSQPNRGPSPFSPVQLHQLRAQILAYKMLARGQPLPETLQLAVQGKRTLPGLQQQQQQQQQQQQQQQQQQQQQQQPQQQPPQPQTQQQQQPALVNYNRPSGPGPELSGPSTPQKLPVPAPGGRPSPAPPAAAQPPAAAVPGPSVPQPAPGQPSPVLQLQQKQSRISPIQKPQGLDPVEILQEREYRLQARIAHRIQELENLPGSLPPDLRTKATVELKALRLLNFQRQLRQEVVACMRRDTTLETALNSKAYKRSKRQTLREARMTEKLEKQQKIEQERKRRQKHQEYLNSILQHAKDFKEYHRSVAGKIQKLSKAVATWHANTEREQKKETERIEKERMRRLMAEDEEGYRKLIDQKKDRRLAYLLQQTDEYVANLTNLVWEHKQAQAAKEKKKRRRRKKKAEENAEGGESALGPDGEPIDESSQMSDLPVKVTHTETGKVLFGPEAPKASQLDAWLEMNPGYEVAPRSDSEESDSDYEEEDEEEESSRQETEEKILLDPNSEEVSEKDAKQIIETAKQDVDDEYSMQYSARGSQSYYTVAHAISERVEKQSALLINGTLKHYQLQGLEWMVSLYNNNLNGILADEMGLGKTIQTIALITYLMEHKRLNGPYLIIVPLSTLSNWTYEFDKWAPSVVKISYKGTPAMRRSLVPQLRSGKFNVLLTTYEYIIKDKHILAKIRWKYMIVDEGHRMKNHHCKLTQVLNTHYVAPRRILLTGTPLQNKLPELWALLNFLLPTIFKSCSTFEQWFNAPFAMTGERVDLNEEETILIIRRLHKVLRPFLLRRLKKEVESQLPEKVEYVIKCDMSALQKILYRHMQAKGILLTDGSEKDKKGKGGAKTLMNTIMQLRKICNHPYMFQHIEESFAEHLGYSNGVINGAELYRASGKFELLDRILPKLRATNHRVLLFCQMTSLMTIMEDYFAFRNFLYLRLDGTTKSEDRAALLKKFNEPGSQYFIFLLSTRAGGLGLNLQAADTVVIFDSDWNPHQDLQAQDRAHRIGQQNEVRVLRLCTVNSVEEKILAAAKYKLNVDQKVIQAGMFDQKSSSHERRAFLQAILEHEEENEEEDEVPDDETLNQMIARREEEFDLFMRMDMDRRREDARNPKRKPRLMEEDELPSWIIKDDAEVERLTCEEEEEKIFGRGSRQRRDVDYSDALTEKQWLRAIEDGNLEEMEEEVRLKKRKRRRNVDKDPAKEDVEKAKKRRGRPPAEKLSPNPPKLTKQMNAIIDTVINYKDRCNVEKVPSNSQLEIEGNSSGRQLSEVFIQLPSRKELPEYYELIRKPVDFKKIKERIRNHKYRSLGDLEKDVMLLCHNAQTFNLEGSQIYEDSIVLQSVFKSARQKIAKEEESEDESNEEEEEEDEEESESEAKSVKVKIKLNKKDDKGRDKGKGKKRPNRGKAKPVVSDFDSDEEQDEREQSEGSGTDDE

Regarding `Cc1ncsc1-c1ccc([C@H](C)NC(=O)[C@@H]2C[C@@H](O)CN2C(=O)[C@@H](c2cc(OCCN3CC(c4cc5cc(-c6ccccc6O)nnc5n4C(F)F)C3)no2)C(C)C)cc1` (racemic) [Compound 148, (2S,4R)-1-[(2R)-2-[3-(2-{3-[7-(difluoromethyl)-3-(2-hydroxyphenyl)pyrrolo[2,3-c]pyridazin-6-yl]azetidin-1-yl}ethoxy)-1,2-oxazol-5-yl]-3-methylbutanoyl]-4-hydroxy-N-[(1S)-1-[4-(4-methyl-1,3-thiazol-5-yl)phenyl]ethyl]pyrrolidine-2-carboxamide], in experiment [1], the Dmax was < 50%. Further, at HiBit-BRM fusion protein, the “BRM HiBit Degradation Maximum (%)” value is “C (“C” indicates maximum degradation < 50%)”.
With `Cc1ncsc1-c1ccc(CNC(=O)[C@@H]2C[C@@H](O)CN2C(=O)[C@@H](NC(=O)CCC(=O)NC23CC(c4cc5cc(-c6ccccc6O)nnc5[nH]4)(C2)C3)C(C)(C)C)cc1` (racemic) [Compound 298, N1-((S)-1-((2S,4R)-4-hydroxy-2-((4-(4-methylthiazol-5-yl)benzyl)carbamoyl)pyrrolidin-1-yl)-3,3-dimethyl-1-oxobutan-2-yl)-N4-(3-(3-(2-hydroxyphenyl)-7H-pyrrolo[2,3-c]pyridazin-6-yl)bicyclo[1.1.1]pentan-1-yl)succinamide], the Dmax in experiment [1] was < 50%. Further, the “BRM HiBit Degradation Maximum (%)” value on HiBit-BRM fusion protein is recorded as “C (“C” indicates maximum degradation < 50%)”.
For `Cc1ncsc1-c1ccc(CNC(=O)[C@@H]2C[C@@H](O)CN2C(=O)[C@@H](NC(=O)CNC(=O)[C@H]2CCc3[nH]c4nnc(-c5ccccc5O)cc4c3C2)C(C)(C)C)cc1` (single isomer, unassigned) [Compound 191], in that order: < 50% and “C (“C” indicates maximum degradation < 50%)”.
The like results for `O=C1CCC(N2C(=O)c3cccc(NCCCCCCCCC(=O)N4CC(c5cc6cc(-c7ccccc7O)nnc6[nH]5)C4)c3C2=O)C(=O)N1` (centres unmarked) [Compound 33, 2-(2,6-dioxopiperidin-3-yl)-4-((9-(3-(3-(2-hydroxyphenyl)-7H-pyrrolo[2,3-c]pyridazin-6-yl)azetidin-1-yl)-9-oxononyl)amino)isoindoline-1,3-dione] were, in that order, < 50% and “C (“C” indicates maximum degradation < 50%)”.
On to `Cc1ncsc1-c1ccc([C@H](C)NC(=O)[C@@H]2C[C@@H](O)CN2C(=O)[C@@H](c2cc(OCCN(C)CC34CC(c5cc6cc(-c7ccccc7O)nnc6[nH]5)(C3)C4)no2)C(C)C)cc1` (racemic) [Compound 246, (2S,4R)-4-hydroxy-1-((R)-2-(3-(2-(((3-(3-(2-hydroxyphenyl)-7H-pyrrolo[2,3-c]pyridazin-6-yl)bicyclo[1.1.1]pentan-1-yl)methyl)(methyl)amino)ethoxy)isoxazol-5-yl)-3-methylbutanoyl)-N-((S)-1-(4-(4-methylthiazol-5-yl)phenyl)ethyl)pyrrolidine-2-carboxamide], for which the Dmax in experiment [1] was > 75%. Also, the DC50 in experiment [1] (setting [2]) is > 100 nM. Besides, on HiBit-BRM fusion protein, the “BRM HiBit Degradation Maximum (%)” value is “A (“A” indicates maximum degradation ≥ 75%)” and the DC50 is > 10 nM.
For the compound `Cc1ncsc1-c1ccc(CNC(=O)[C@@H]2C[C@@H](O)CN2C(=O)[C@@H](NC(=O)CCCCC(=O)N[C@H]2CCc3[nH]c4nnc(-c5ccccc5O)cc4c3C2)C(C)(C)C)cc1` (relative stereo) [Compound 175, N1-((S)-1-((2S,4R)-4-hydroxy-2-((4-(4-methylthiazol-5-yl)benzyl)carbamoyl)pyrrolidin-1-yl)-3,3-dimethyl-1-oxobutan-2-yl)-N6-((S)-3-(2-hydroxyphenyl)-6,7,8,9-tetrahydro-5H-pyridazino[3,4-b]indol-6-yl)adipamide], the Dmax in experiment [1] is < 50%. At HiBit-BRM fusion protein, the “BRM HiBit Degradation Maximum (%)” value is “A (“A” indicates maximum degradation ≥ 75%)” and the DC50 was > 1000 nM.
For `Cc1ncsc1-c1ccc([C@H](C)NC(=O)[C@@H]2C[C@@H](O)CN2C(=O)[C@@H](c2cc(OCCN3CC(c4cc5cc(-c6cc(F)cc(Cl)c6O)nnc5[nH]4)C3)no2)C(C)C)cc1` (racemic) [Compound 287, (2S,4R)-1-((R)-2-(3-(2-(3-(3-(3-chloro-5-fluoro-2-hydroxyphenyl)-7H-pyrrolo[2,3-c]pyridazin-6-yl)azetidin-1-yl)ethoxy)isoxazol-5-yl)-3-methylbutanoyl)-4-hydroxy-N-((S)-1-(4-(4-methylthiazol-5-yl)phenyl)ethyl)pyrrolidine-2-carboxamide], the Dmax in experiment [1] was < 50%. Moreover, on HiBit-BRM fusion protein, the “BRM HiBit Degradation Maximum (%)” value is given as “B (“B” indicates maximum degradation ≥ 50%)” and the DC50 was > 100 nM.
Take `Cc1ncsc1-c1ccc(CNC(=O)[C@@H]2C[C@@H](O)CN2C(=O)[C@@H](NC(=O)CCCCCCCCCCCCCCC(=O)N2CC(c3c[nH]c4nnc(-c5ccccc5O)cc34)C2)C(C)(C)C)cc1` [Compound 41, (2S,4R)-4-hydroxy-1-((S)-2-(16-(3-(3-(2-hydroxyphenyl)-7H-pyrrolo[2,3-c]pyridazin-5-yl)azetidin-1-yl)-16-oxohexadecanamido)-3,3-dimethylbutanoyl)-N-(4-(4-methylthiazol-5-yl)benzyl)pyrrolidine-2-carboxamide]: the Dmax in experiment [1] was < 50%. The “BRM HiBit Degradation Maximum (%)” value at HiBit-BRM fusion protein was “C (“C” indicates maximum degradation < 50%)”.
Turning to `O=C1CCC(N2C(=O)c3ccc(N4CCN(CCC(=O)N5CC(c6cc7cc(-c8ccccc8O)nnc7[nH]6)C5)CC4)cc3C2=O)C(=O)N1` (centres unmarked) [Compound 26, 2-(2,6-dioxopiperidin-3-yl)-5-(4-(3-(3-(3-(2-hydroxyphenyl)-7H-pyrrolo[2,3-c]pyridazin-6-yl)azetidin-1-yl)-3-oxopropyl)piperazin-1-yl)isoindoline-1,3-dione], the Dmax in experiment [1] is < 50%. For the same compound, the “BRM HiBit Degradation Maximum (%)” value on HiBit-BRM fusion protein is “C (“C” indicates maximum degradation < 50%)”.
For the compound `Cc1ncsc1-c1ccc(CNC(=O)[C@@H]2C[C@@H](O)CN2C(=O)[C@@H](NC(=O)CCCCCCCC(=O)N2CC(c3c[nH]c4nnc(-c5ccccc5O)cc34)C2)C(C)(C)C)cc1` [Compound 36, (2S,4R)-4-hydroxy-1-((S)-2-(9-(3-(3-(2-hydroxyphenyl)-7H-pyrrolo[2,3-c]pyridazin-5-yl)azetidin-1-yl)-9-oxononanamido)-3,3-dimethylbutanoyl)-N-(4-(4-methylthiazol-5-yl)benzyl)pyrrolidine-2-carboxamide], the Dmax in experiment [1] is < 50%. Moreover, on HiBit-BRM fusion protein, the “BRM HiBit Degradation Maximum (%)” value is listed as “C (“C” indicates maximum degradation < 50%)”.
The like results for `O=C1CCC(N2C(=O)c3cccc(OCCCCCCCC(=O)N4CC(c5cc6cc(-c7ccccc7O)nnc6[nH]5)C4)c3C2=O)C(=O)N1` (centres unmarked) [Compound 30, 2-(2,6-dioxopiperidin-3-yl)-4-((8-(3-(3-(2-hydroxyphenyl)-7H-pyrrolo[2,3-c]pyridazin-6-yl)azetidin-1-yl)-8-oxooctyl)oxy)isoindoline-1,3-dione] were, in that order, < 50% and “C (“C” indicates maximum degradation < 50%)”.
The like results for `Cc1ncsc1-c1ccc(CNC(=O)[C@@H]2C[C@@H](O)CN2C(=O)[C@@H](NC(=O)CCCCCCC(=O)N2CC(c3c[nH]c4nnc(-c5ccccc5O)cc34)C2)C(C)(C)C)cc1` [Compound 45, (2S,4R)-4-hydroxy-1-((S)-2-(8-(3-(3-(2-hydroxyphenyl)-7H-pyrrolo[2,3-c]pyridazin-5-yl)azetidin-1-yl)-8-oxooctanamido)-3,3-dimethylbutanoyl)-N-(4-(4-methylthiazol-5-yl)benzyl)pyrrolidine-2-carboxamide] were, in that order, < 50% and “C (“C” indicates maximum degradation < 50%)”.
With `Cc1ncsc1-c1ccc([C@H](C)NC(=O)[C@@H]2C[C@@H](O)CN2C(=O)[C@@H](c2cc(N3CCN(C(=O)[C@H]4C[C@]5(Cc6cc(-c7ccccc7O)nnc6N5)C4)CC3)no2)C(C)C)cc1` [Compound 77, (2S,4R)-4-hydroxy-1-((R)-2-(3-(4-((1S,3r)-3′-(2-hydroxyphenyl)-5′,7′-dihydrospiro[cyclobutane-1,6′-pyrrolo[2,3-c]pyridazine]-3-carbonyl)piperazin-1-yl)isoxazol-5-yl)-3-methylbutanoyl)-N-((S)-1-(4-(4-methylthiazol-5-yl)phenyl)ethyl)pyrrolidine-2-carboxamide], in experiment [1], the “BRG1 HiBit Degradation Maximum (%)” value was “A (“A” indicates maximum degradation ≥ 75%)”. In addition, in experiment [1] (setting [2]), the IC50 is > 100 nM. Moreover, on HiBit-BRM fusion protein, the “BRM HiBit Degradation Maximum (%)” value is “A (“A” indicates maximum degradation ≥ 75%)” and the IC50 was > 10 nM.
For `Cc1ncsc1C12CC(CNC(=O)[C@@H]3C[C@@H](O)CN3C(=O)[C@H](c3cc(OCCN4CC(c5cc6cc(-c7ccccc7O)nnc6[nH]5)C4)no3)C(C)C)(C1)C2` (single isomer, unassigned) [Compound 114], in experiment [1], the Dmax was < 50%. Besides, the “BRM HiBit Degradation Maximum (%)” value at HiBit-BRM fusion protein is reported as “C (“C” indicates maximum degradation < 50%)”.
As for `Cc1ncsc1-c1ccc([C@H](C)NC(=O)[C@@H]2C[C@@H](O)CN2C(=O)[C@H](c2cc([C@H]3CC[C@H](c4cnc(N5CCC(c6c[nH]c7nnc(-c8ccccc8O)cc67)CC5)nc4)CC3)no2)C(C)C)cc1` [Compound 310, (2S,4R)-4-hydroxy-N-[(1S)-1-[4-(4-methyl-1,3-thiazol-5-yl)phenyl]ethyl]-1-[(2S)-3-methyl-2-{3-[(1r,4r)-4-(2-{4-[3-(2-hydroxyphenyl)-7H-pyrrolo[2,3-c]pyridazin-5-yl]piperidin-1-yl}pyrimidin-5-yl)cyclohexyl]-1,2-oxazol-5-yl}butanoyl]pyrrolidine-2-carboxamide], the Dmax in experiment [1] is > 50%. Besides, the DC50 in experiment [1] (setting [2]) was > 100 nM. In addition, at HiBit-BRM fusion protein, the “BRM HiBit Degradation Maximum (%)” value is recorded as “A (“A” indicates maximum degradation ≥ 75%)” and the DC50 was > 10 nM.

The values are drawn from patent US20240024488A1, “COMPOUNDS AND USES THEREOF” (Foghorn Therapeutics Inc., priority 2020, published 2024).
